Tests used:
monocyte-derived DCs = test: Ca2+ mobilization assay on monocyte-derived DCs; type: cell-based, human; settings: dose-dependent; FIG. 13A
Procedure: Monocyte-derived DCs were generated either from the adherent fraction of PBMCs cultured with GM-CSF (800 U/ml) and […] (500 U/ml), or from Percoll-purified monocytes cultured with GM-CSF (50 ng/ml) and IL-13 (20 ng/ml), for 5 to 7 days. For Ca^2+ mobilization assay, monocytes were obtained by negative selection with the Monocyte Isolation Kit II (Miltenyi Biotec). […] For Ca^2+ mobilization assays, monocyte-derived DCs or monocytes (5×10^5 cells/ml in HBSS without phenol red but containing 0.1% BSA and 1 mM Probenecid (Sigma)) were loaded with 4 μM Fluo 4 (Molecular Probes) for 1 h at 20° C. in the dark. The loaded cells were washed twice, resuspended at 1 to 2×10^6 cells/ml and 50 μl of cell suspension was distributed per well of a 96 well plate (Viewplate, Packard Bioscience). Reading was performed in a Fluostar fluorimeter (BMG) at 25° C.: 50 μl of ligand-containing medium was injected, and the fluorescence at 520 nm was recorded every second for 1 to 3 min. Each condition was performed in triplicate, the mean fluorescence for each time point was calculated, and the curves were normalized by subtracting the mean value of the five measurements preceding the injection.

FPRL1 = molecular target: T1, FPRL1 (Homo sapiens, UniProt P25090); test: Competition binding on FPRL1-expressing CHO-K1 cells, tracer [125I]-WKYMVm; settings: up to concentrations of 3 μM
T1 construct: expressed in transfected cells; host or cells: CHO-K1 (with or without Galpha16 and apoaequorin)
T1 sequence (P25090 1-351): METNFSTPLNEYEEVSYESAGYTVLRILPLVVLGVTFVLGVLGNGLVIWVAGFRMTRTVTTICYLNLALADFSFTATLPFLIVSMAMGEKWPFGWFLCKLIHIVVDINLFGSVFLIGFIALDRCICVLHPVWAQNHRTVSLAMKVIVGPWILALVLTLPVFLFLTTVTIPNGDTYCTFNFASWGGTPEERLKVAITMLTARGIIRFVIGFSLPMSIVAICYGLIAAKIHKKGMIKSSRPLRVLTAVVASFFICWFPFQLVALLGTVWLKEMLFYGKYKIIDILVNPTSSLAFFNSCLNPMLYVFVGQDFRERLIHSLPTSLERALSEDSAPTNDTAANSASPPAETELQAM
Procedure: FPRL2, FPRL1 and FPR-expressing CHO-K1 cells were plated in 24 wells plates (200,000 cells per well for FPRL2, and 100,000 cells per well for the two other receptors). The next day, the cells were washed twice with a KRH buffer containing 280 mM saccharose and, for FPRL1 and FPR, 0.1 % NaN3. […] Cells were washed twice with ice cold buffer, total radioactivity was recovered with 1 M […] and counted in a gamma counter for […]

FPRL2 [1] = molecular target: T2, FPRL2 (Homo sapiens, UniProt P25089); test: cAMP accumulation assay (HTRF, forskolin) on FPRL2-expressing CHO-K1 cells; type: cell-based; design: expressed in transfected cells; host or cells: CHO-K1; settings: CHO-K1 cells expressing FPRL2 but not G alpha 16; without forskolin
T2 sequence (P25089 1-353): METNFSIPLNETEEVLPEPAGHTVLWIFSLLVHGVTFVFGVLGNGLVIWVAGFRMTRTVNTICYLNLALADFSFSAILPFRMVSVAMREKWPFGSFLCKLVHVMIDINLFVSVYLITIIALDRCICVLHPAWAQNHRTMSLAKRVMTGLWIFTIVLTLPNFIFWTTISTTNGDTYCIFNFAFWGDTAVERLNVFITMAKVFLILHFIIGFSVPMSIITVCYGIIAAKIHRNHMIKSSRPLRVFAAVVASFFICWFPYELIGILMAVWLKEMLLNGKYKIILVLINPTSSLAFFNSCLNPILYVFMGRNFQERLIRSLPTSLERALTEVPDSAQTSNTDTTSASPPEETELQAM
Procedure: The cAMP concentrations were determined using a homogeneous time-resolved fluorescence (HTRF) kit (Cis Bio International). […] The reaction was stopped by the successive addition of cAMP-XL665 and anti-cAMP cryptate diluted in lysis buffer. The plates were incubated for 60 min at room temperature and read on a Rubystar fluorimeter (BMG). […] A calibration curve was obtained by plotting delta F % versus cAMP concentrations. […] The aequorin-based assay was performed with or without overnight pretreatment with 100 ng/ml Pertussis toxin. […] For FPRL2 polymorphism analysis, HEK cells were transiently transfected with empty and wild-type or Asp338H is FPRL2-containing pcdna vector using calcium phosphate method. Cells were recovered 48 hours later and used for FACS or cAMP experiments.

FPRL2 [2] = molecular target: T2, FPRL2; test: Cell surface FPRL2 on DCs by FACS after culture with F2L; type: cell-based; design: expressed in transfected cells; host or cells: CHO-K1; settings: 1 μM F2L for 48 hours; not shown
Procedure: Antibodies were generated by injecting BALB/c mice with 100 μg pcDNA3-FPRL2 as described (45). Sera were tested by FACS on the CH0-K1-FPRL2 cell line, and immune mice were used to generate monoclonal antibodies by standard hybridoma technology, using the NSO myeloma cell line. The Ig class of selected hybridomas was determined with a mouse mAb isotyping kit (IsoStrip, Boehringer Mannheim). The antibodies were tested using flow cytometry, performed using anti-FPRL2 antibodies or control IgG2a at 1 μg/ml (for CHO-K1 cells) or 5 μg/ml (for primary cells) in PBS containing 0.1% BSA, 0.1% sodium azide, and FITC-conjugated γ-chain-specific goat anti-mouse IgG (Sigma) as secondary antibody. Fluorescence of 10,000 cells was assayed using a FACScan flow cytofluorimeter (Beckton Dickinson). Intracytoplasmic staining was realised using Cytoperm/Cytowash (Becton Dickinson) according to manufacturer's instructions.

CC[C@H](C)[C@H](NC(=O)[C@H](CCSC)NC(=O)CNC(=O)[C@H](CC(C)C)NC(=O)[C@H](CCSC)NC(C)=O)C(=O)N[C@@H](CCCCN)C(=O)N[C@@H](CC(N)=O)C(=O)N[C@@H](CO)C(=O)N[C@@H](CC(C)C)C(=O)N[C@@H](Cc1ccccc1)C(=O)NCC(=O)N[C@@H](CO)C(=O)N[C@H](C(=O)N[C@@H](CCC(=O)O)C(=O)N[C@H](C(=O)N[C@@H](Cc1c[nH]c2ccccc12)C(=O)N1CCC[C@H]1C(=O)N[C@@H](Cc1c[nH]c2ccccc12)C(=O)N[C@@H](CCC(N)=O)C(=O)N[C@H](C(=O)N[C@@H](CC(C)C)C(=O)O)C(C)C)[C@@H](C)O)C(C)C [F2L]
intracellular Ca2+ flux in immature DCs (monocyte-derived DCs): promoted intracellular Ca^2+ flux
competition for FPRL1 binding (FPRL1): no competition
stimulation of cAMP production by itself (FPRL2 [1]): unable to stimulate cAMP production
cell surface FPRL2 on DCs (FPRL2 [2]): down regulation

Reference: US7659251B2, “Ligand for G-protein coupled receptor FPRL2” (priority 2004, dated 2010)
